In patent publication US7727960B2, “C5a receptor antagonists” (Jerini AG, priority 2003, dated 2010):
Read-outs that look alike come from different tables or passages of the source. Each block holds one molecule with its values, some of them ahead of it. Starred links: 1 amine or outer side, 2 acyl side, 3 side chain; linkers in the order of their positions; H or OH if unused. Positions of bridges follow the written chain, without caps; N, C: chain ends. Non-standard residues stand in square brackets, D forms with d. Residues, ends and D or L forms follow the SMILES beside them. *: point of attachment. X2 = COC1O[C@H](C(=O)[*:2])[C@@H](O)[C@H](O)[C@H]1N[*:1]; Dip = N[C@H](C(=O)O)C(c1ccccc1)c1ccccc1; Bta = N[C@@H](Cc1csc2ccccc12)C(=O)O; Hydrocinnamoyl = O=C(CCc1ccccc1)*; Hyp = O=C(O)[C@@H]1C[C@@H](O)CN1; 4Pal = N[C@@H](Cc1ccncc1)C(=O)O; 2Thi = N[C@@H](Cc1cccs1)C(=O)O; dCha = N[C@H](CC1CCCCC1)C(=O)O; AllylGly = C=CC[C@H](N)C(=O)O; Pip = O=C(O)[C@@H]1CCCCN1; Nle = CCCC[C@H](N)C(=O)O; Orn = NCCC[C@H](N)C(=O)O; Aze = O=C(O)[C@@H]1CCN1

Tests used:
[1] = Solubility determination for selected C5aR-antagonists; format: physicochemical; settings: for Solubility in 20 mM HEPES pH 7.4: 20 mM HEPES pH 7.4, 24 h at RT; for solubility: aqueous HEPES buffer (pH 7.4)
Experimental: Solubility of compounds was determined by the following procedure: 20 μl of a 10 mM stock solution (in DMSO) of the compound were diluted in 980 μl of the solvent to be tested. After incubation for 24 h at RT under shaking the samples are centrifuged at 11.000 rpm in an Eppendorf centrifuge. The supematant is determined by photometry. […] Therefor the compound was suspended at 10 mg/ml in the solvent systems of choice. The undissolved part was removed by centrifugation after 24 h. The UV-absorption of the supernatant was measured and compared to a respective reference value 60% MeOH).

human C5aR (CD88) [2] = biological target: T1, human C5aR (CD88) (Homo sapiens, UniProt P21730); assay: Determination of EC50 values in an enzyme release assay (agonistic activity, no C5a added); format: cell-based; settings: for agonistic activity (in words): cellular assay, up to a concentration of at least 1430 nM
T1 construct: expressed in transfected cells; host or cells: rat basophilic leukemia cells (RBL)
T1 sequence (P21730 1-350): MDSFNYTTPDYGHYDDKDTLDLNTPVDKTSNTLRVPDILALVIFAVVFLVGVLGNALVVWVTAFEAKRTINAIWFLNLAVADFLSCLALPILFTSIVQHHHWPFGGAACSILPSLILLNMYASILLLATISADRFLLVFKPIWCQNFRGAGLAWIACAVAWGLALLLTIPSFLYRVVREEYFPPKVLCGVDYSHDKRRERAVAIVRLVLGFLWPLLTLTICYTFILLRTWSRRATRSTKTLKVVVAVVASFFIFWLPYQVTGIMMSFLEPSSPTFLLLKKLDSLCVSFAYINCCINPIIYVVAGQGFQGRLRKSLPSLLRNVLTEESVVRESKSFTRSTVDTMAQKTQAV
Experimental: The determination of the EC50 value was performed in a way similar to the procedure described in example 11, with the only exception that 30 μl of the compound to be tested were mixed with 75 μl of the cell suspension described in example 11. There was no preincubation or addition of C5a for stimulation of the enzyme release.

human C5aR (CD88) [3] = biological target: T1, human C5aR (CD88); assay: Determination of the IC50 value in an enzyme release assay (functional assay, antagonistic activity); format: cell-based; settings: for IC50-value compared to compound 40 (in words): arginine replaced by hydrophobic substitutions
[4] = noteworthy = IC50 of less than 200 nM in the functional assay

Molecule: CC(=O)N[C@@H](Cc1ccccc1)C(=O)N[C@H]1CCCNC(=O)[C@H](Cc2ccccc2)NC(=O)[C@H](Cc2c[nH]c3ccccc23)NC(=O)[C@@H](CC2CCCCC2)NC(=O)[C@@H]2CCCN2C1=O [Compound 1, Ac-Phe-[Orn-Pro-cha-Trp-Phe]] (Ac-F[Orn]P[dCha]WF; lactam 2-C)
Solubility in 20 mM HEPES pH 7.4 [1]: 8 % of 200 μM
solubility [1]: 8%
agonistic activity (in words) (human C5aR (CD88) [2]): pure antagonists
IC50-value compared to compound 40 (in words) (human C5aR (CD88) [3]): without a significant increase of the IC50-value
inhibitory activity (in words) (human C5aR (CD88) [3]; [4]): noteworthy inhibitory activity

Molecule: CC(=O)N[C@@H](Cc1ccccc1)C(=O)N[C@H]1CCCNC(=O)[C@H](Cc2ccccc2)NC(=O)[C@H](Cc2c[nH]c3ccccc23)NC(=O)[C@@H](CC2CCCCC2)NC(=O)[C@@H]2C[C@@H](O)CN2C1=O [Compound 2, Ac-Phe-[Orn-Hyp-cha-Trp-Phe]] (Ac-F[Orn][Hyp][dCha]WF; lactam 2-C)
Solubility in 20 mM HEPES pH 7.4 [1]: 13 % of 200 μM
solubility [1]: 13%
agonistic activity (in words) (human C5aR (CD88) [2]): pure antagonists
inhibitory activity (in words) (human C5aR (CD88) [3]): noteworthy inhibitory activity

Molecule: CCCC[C@@H]1NC(=O)[C@H](Cc2c[nH]c3ccccc23)NC(=O)[C@@H](CC2CCCCC2)NC(=O)[C@@H]2CCCN2C(=O)[C@@H](NC(=O)[C@H](Cc2ccccc2)NC(=O)[C@H]2OC(OC)[C@H](NC(C)=O)[C@@H](O)[C@@H]2O)CCCNC1=O (stereo partly drawn) [Compound 4, X-Phe-[Orn-Pro-cha-Trp-Nle]; X = 2-acetamido-1-methyl-glucuronyl] (Ac-[X2]F[Orn]P[dCha]W[Nle]; lactam 3-C)
Solubility in 20 mM HEPES pH 7.4 [1]: 84 % of 200 μM
solubility [1]: 84%

Molecule: CC(=O)N[C@@H](Cc1ccccc1)C(=O)N[C@H]1CCCNC(=O)[C@H](CCCNC(=N)N)NC(=O)[C@H](Cc2c[nH]c3ccccc23)NC(=O)[C@@H](CC2CCCCC2)NC(=O)[C@@H]2CCCN2C1=O [Compound 40, Ac-Phe-[Orn-Pro-cha-Trp-Arg], reference compound]
Solubility in 20 mM HEPES pH 7.4 [1]: 94 % of 200 μM
solubility [1]: 94%

Molecule: CC(=O)N[C@@H](Cc1ccccc1)C(=O)N[C@@H](CCCN)C(=O)N1CCCC[C@H]1C(=O)N[C@H](CC1CCCCC1)C(=O)N[C@@H](Cc1c[nH]c2ccccc12)C(=O)N[C@@H](Cc1ccccc1)C(N)=O [Compound 55, Ac-Phe-Orn-Pip-cha-Trp-Phe-NH2] (Ac-F[Orn][Pip][dCha]WF-NH2)
agonistic activity (in words) (human C5aR (CD88) [2]): pure antagonists

Molecule: CC(=O)N[C@@H](Cc1ccccc1)C(=O)N[C@@H](CCCN)C(=O)N1CCC[C@H]1C(=O)N[C@H](CC1CCCCC1)C(=O)N[C@@H](Cc1csc2ccccc12)C(=O)N[C@@H](Cc1ccccc1)C(N)=O [Compound 62, Ac-Phe-Orn-Pro-cha-Bta-Phe-NH2] (Ac-F[Orn]P[dCha][Bta]F-NH2)
agonistic activity (in words) (human C5aR (CD88) [2]): pure antagonists

Molecule: CC(=O)N[C@@H](Cc1cccs1)C(=O)N[C@@H](CCCN)C(=O)N1CCCC[C@H]1C(=O)N[C@H](CC1CCCCC1)C(=O)N[C@@H](Cc1csc2ccccc12)C(=O)N[C@@H](Cc1ccccc1)C(N)=O [Compound 67, Ac-Thi-Orn-Pip-cha-Bta-Phe-NH2] (Ac-[2Thi][Orn][Pip][dCha][Bta]F-NH2)
agonistic activity (in words) (human C5aR (CD88) [2]): pure antagonists

Molecule: CC(=O)N[C@H](C(=O)N[C@@H](CCCN)C(=O)N1CCC[C@H]1C(=O)N[C@H](CC1CCCCC1)C(=O)N[C@@H](Cc1c[nH]c2ccccc12)C(=O)N[C@@H](Cc1ccccc1)C(N)=O)C(c1ccccc1)c1ccccc1 [Compound 71, Ac-Ebw-Orn-Pro-cha-Trp-Phe-NH2] (Ac-[Dip][Orn]P[dCha]WF-NH2)
agonistic activity (in words) (human C5aR (CD88) [2]): pure antagonists

Molecule: CC(=O)N[C@@H](Cc1ccccc1)C(=O)N[C@@H](CCCN)C(=O)N1CC[C@H]1C(=O)N[C@H](CC1CCCCC1)C(=O)N[C@@H](Cc1c[nH]c2ccccc12)C(=O)N[C@@H](Cc1ccccc1)C(N)=O [Compound 83, Ac-Phe-Orn-Aze-cha-Trp-Phe-NH2] (Ac-F[Orn][Aze][dCha]WF-NH2)
agonistic activity (in words) (human C5aR (CD88) [2]): pure antagonists

Molecule: Ac-Phe-Orn-cha-cha-Bta-Phe-NH2
agonistic activity (in words) (human C5aR (CD88) [2]): pure antagonists

Molecule: Ac-Phe-[Orn-Hyp(CONHCH2COH(OH)CH2OH)-cha-Trp-Phe]
inhibitory activity (in words) (human C5aR (CD88) [3]): noteworthy inhibitory activity

Molecule: Ac-Phe-[Orn-Pro-cha-Trp-Ppa] (Ac-F[Orn]P[dCha]W[4Pal]; lactam 2-C (inferred))
inhibitory activity (in words) (human C5aR (CD88) [3]; [4]): noteworthy inhibitory activity

Molecule: Ac-Phe-[Orn-Ser-cha-Trp-Phe]
inhibitory activity (in words) (human C5aR (CD88) [3]; [4]): noteworthy inhibitory activity

Molecule: H-Phe-[Orn-Pro-cha-Trp-Phe]
agonistic activity (in words) (human C5aR (CD88) [2]): pure antagonists

B1: hrC5a: hrC5a (Sigma) used for stimulation of the enzyme release; agonist control in Table 5 (protein)
chain: TLQKKIEEIAAKYKHSVVKKCCYDGACVNNDETCEQRAARISLGPRCIKAFTECCVVASQLRANISHKDMQLGR
EC50 (human C5aR (CD88) [2]; agonistic activity, no preincubation or addition of C5a): 2.4 nM

Continued, in another order:

Solubility in 20 mM HEPES pH 7.4 [1]: 22 % of 200 μM
solubility [1]: 22%
inhibitory activity (in words) (human C5aR (CD88) [3]; [4]): noteworthy inhibitory activity
Molecule: CCCC[C@@H]1NC(=O)[C@H](Cc2c[nH]c3ccccc23)NC(=O)[C@@H](CC2CCCCC2)NC(=O)[C@@H]2CCCN2C(=O)[C@@H](NC(=O)[C@H](Cc2ccccc2)NC(C)=O)CCCNC1=O [Compound 28, Ac-Phe-[Orn-Pro-cha-Trp-Nle]] (Ac-F[Orn]P[dCha]W[Nle]; lactam 2-C)
IC50-value compared to compound 40 (in words) (human C5aR (CD88) [3]): without a significant increase of the IC50-value

agonistic activity (in words) (human C5aR (CD88) [2]): pure antagonists
inhibitory activity (in words) (human C5aR (CD88) [3]; [4]): noteworthy inhibitory activity
Molecule: C=CC[C@@H]1NC(=O)[C@H](Cc2c[nH]c3ccccc23)NC(=O)[C@@H](CC2CCCCC2)NC(=O)[C@@H]2CCCN2C(=O)[C@@H](NC(=O)[C@H](Cc2ccccc2)NC(C)=O)CCCNC1=O [Compound 33, Ac-Phe-[Orn-Pro-cha-Trp-Eaf]] (Ac-F[Orn]P[dCha]W[AllylGly]; lactam 2-C)
IC50-value compared to compound 40 (in words) (human C5aR (CD88) [3]): without a significant increase of the IC50-value

agonistic activity (in words) (human C5aR (CD88) [2]): pure antagonists
inhibitory activity (in words) (human C5aR (CD88) [3]; [4]): noteworthy inhibitory activity
Molecule: CCCC[C@@H]1NC(=O)[C@H](Cc2c[nH]c3ccccc23)NC(=O)[C@@H](CC2CCCCC2)NC(=O)[C@@H]2CCCN2C(=O)[C@@H](NC(=O)CCc2ccccc2)CCCNC1=O [Compound 41, Ph—CH2—CH2—CO-[Orn-Pro-cha-Trp-Nle]] (Hydrocinnamoyl-[Orn]P[dCha]W[Nle]; lactam 1-C)

Solubility in 20 mM HEPES pH 7.4 [1]: 45 % of 200 μM
agonistic activity (in words) (human C5aR (CD88) [2]): pure antagonists
inhibitory activity (in words) (human C5aR (CD88) [3]; [4]): noteworthy inhibitory activity
Molecule: CCCC[C@@H]1NC(=O)[C@H](Cc2c[nH]c3ccccc23)NC(=O)[C@@H](CC2CCCCC2)NC(=O)[C@@H]2CCCN2C(=O)[C@@H](NC(=O)[C@@H](N)Cc2ccccc2)CCCNC1=O [Compound 42, H-Phe-[Orn-Pro-cha-Trp-Nle]] (H-F[Orn]P[dCha]W[Nle]; lactam 2-C)

agonistic activity (in words) (human C5aR (CD88) [2]): pure antagonists
Molecule: CCCC[C@@H]1NC(=O)[C@H](Cc2c[nH]c3ccccc23)NC(=O)[C@@H](CC2CCCCC2)NC(=O)[C@H](CO)NC(=O)[C@@H](NC(=O)[C@@H](N)Cc2ccccc2)CCCNC1=O [Compound 44, H-Phe-[Orn-Ser-cha-Trp-Nle]] (H-F[Orn]S[dCha]W[Nle]; lactam 2-C)

agonistic activity (in words) (human C5aR (CD88) [2]): pure antagonists
Molecule: CC(=O)N[C@@H](Cc1ccccc1)C(=O)N[C@@H](CCCN)C(=O)N1CCC[C@H]1C(=O)N[C@H](CC1CCCCC1)C(=O)N[C@@H](Cc1c[nH]c2ccccc12)C(=O)N[C@@H](Cc1ccccc1)C(N)=O [Compound 51, Ac-Phe-Orn-Pro-cha-Trp-Phe-NH2] (Ac-F[Orn]P[dCha]WF-NH2)

agonistic activity (in words) (human C5aR (CD88) [2]): pure antagonists
Molecule: CC(=O)N[C@@H](Cc1ccccc1)C(=O)N[C@@H](Cc1c[nH]c2ccccc12)C(=O)N1CCC[C@H]1C(=O)N[C@H](CC1CCCCC1)C(=O)N[C@@H](Cc1c[nH]c2ccccc12)C(=O)N[C@@H](Cc1ccccc1)C(N)=O [Compound 84, Ac-Phe-Trp-Pro-cha-Trp-Phe-NH2] (Ac-FWP[dCha]WF-NH2)

agonistic activity (in words) (human C5aR (CD88) [2]): pure antagonists
Molecule: CC(=O)N[C@@H](Cc1ccccc1)C(=O)N[C@@H](CCCNC(=N)N)C(=O)N1CCC[C@H]1C(=O)N[C@H](CC1CCCCC1)C(=O)N[C@@H](Cc1c[nH]c2ccccc12)C(=O)N[C@@H](Cc1ccccc1)C(N)=O [Compound 88, Ac-Phe-Arg-Pro-cha-Trp-Phe-NH2] (Ac-FRP[dCha]WF-NH2)

inhibitory activity (in words) (human C5aR (CD88) [3]; [4]): noteworthy inhibitory activity
Molecule: Ac-Phe-[Orn-Hyp(COCH2OCH2CH2OCH2CH2OCH3)-cha-Trp-Phe]
